Where two headings read alike, the source gives them in different places.
How the values were obtained:
Assay in all cases: KinomeScan kinase panel, single concentration 10 µM
Format in all cases: binding
[1] = biological target: T1, KinomeScan kinase panel (Homo sapiens, UniProt Q9UKI8); details: read-out: score (%)
T1 construct: purchased DiscoveRx (KinomeScan)
T1 sequence (Q9UKI8 1-766): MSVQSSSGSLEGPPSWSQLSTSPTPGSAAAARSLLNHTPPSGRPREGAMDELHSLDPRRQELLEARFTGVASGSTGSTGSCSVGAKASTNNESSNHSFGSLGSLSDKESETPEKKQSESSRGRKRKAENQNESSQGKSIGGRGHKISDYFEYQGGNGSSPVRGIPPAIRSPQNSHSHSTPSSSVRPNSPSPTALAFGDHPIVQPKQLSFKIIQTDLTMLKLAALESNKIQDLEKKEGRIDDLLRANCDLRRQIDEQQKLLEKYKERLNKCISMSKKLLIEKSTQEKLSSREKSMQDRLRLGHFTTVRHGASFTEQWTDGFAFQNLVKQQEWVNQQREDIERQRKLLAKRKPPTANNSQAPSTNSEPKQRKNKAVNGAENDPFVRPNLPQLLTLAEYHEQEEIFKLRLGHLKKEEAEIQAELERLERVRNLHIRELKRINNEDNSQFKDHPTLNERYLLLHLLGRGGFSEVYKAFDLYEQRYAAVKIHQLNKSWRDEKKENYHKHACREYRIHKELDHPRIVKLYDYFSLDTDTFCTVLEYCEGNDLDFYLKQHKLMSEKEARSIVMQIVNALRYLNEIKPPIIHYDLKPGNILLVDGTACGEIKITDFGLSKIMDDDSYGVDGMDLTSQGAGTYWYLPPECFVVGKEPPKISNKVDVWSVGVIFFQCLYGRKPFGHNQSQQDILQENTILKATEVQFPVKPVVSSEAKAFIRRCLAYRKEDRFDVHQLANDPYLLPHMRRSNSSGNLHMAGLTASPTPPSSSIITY

[2] = biological target: T2, KinomeScan kinase panel (Homo sapiens, UniProt P09769); details: FGR, 10 µM; read-out: score (%)
T2 construct: purchased DiscoveRx (KinomeScan)
T2 sequence (P09769 whole entry): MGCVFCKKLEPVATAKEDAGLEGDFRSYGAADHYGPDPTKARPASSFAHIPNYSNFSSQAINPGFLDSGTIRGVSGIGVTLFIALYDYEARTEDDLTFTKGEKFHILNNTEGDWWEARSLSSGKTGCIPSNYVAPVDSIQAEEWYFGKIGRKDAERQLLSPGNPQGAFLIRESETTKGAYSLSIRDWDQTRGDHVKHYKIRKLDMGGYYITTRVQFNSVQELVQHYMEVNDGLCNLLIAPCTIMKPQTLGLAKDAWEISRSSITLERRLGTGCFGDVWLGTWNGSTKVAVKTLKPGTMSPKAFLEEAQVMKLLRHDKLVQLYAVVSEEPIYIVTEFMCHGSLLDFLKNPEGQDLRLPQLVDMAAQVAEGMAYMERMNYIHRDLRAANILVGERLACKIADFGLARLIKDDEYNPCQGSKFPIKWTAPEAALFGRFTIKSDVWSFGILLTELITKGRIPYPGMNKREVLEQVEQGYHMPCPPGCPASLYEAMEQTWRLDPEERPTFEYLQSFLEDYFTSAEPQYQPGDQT

[3] = biological target: T3, KinomeScan kinase panel (Homo sapiens, UniProt P19525); details: 10 µM
T3 construct: purchased DiscoveRx (KinomeScan)
T3 sequence (P19525 whole entry): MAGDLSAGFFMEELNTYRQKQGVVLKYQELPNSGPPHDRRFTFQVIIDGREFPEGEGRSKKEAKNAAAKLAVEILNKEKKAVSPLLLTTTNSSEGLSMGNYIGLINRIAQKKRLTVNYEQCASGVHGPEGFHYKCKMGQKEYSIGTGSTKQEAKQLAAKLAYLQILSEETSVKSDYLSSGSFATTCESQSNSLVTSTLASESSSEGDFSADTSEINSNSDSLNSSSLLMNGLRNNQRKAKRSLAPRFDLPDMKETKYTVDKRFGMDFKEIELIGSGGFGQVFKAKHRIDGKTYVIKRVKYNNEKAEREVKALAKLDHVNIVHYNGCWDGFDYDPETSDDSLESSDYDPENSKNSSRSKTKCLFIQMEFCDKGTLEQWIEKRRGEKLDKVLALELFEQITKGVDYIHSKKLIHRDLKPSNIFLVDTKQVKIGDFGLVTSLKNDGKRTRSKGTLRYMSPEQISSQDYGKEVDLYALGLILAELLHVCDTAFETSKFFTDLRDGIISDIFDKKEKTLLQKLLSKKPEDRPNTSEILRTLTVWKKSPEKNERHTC

[4] = biological target: T4, KinomeScan kinase panel (Homo sapiens, UniProt O00444); details: read-out: score (%)
T4 construct: purchased DiscoveRx (KinomeScan)
T4 sequence (O00444 1-970): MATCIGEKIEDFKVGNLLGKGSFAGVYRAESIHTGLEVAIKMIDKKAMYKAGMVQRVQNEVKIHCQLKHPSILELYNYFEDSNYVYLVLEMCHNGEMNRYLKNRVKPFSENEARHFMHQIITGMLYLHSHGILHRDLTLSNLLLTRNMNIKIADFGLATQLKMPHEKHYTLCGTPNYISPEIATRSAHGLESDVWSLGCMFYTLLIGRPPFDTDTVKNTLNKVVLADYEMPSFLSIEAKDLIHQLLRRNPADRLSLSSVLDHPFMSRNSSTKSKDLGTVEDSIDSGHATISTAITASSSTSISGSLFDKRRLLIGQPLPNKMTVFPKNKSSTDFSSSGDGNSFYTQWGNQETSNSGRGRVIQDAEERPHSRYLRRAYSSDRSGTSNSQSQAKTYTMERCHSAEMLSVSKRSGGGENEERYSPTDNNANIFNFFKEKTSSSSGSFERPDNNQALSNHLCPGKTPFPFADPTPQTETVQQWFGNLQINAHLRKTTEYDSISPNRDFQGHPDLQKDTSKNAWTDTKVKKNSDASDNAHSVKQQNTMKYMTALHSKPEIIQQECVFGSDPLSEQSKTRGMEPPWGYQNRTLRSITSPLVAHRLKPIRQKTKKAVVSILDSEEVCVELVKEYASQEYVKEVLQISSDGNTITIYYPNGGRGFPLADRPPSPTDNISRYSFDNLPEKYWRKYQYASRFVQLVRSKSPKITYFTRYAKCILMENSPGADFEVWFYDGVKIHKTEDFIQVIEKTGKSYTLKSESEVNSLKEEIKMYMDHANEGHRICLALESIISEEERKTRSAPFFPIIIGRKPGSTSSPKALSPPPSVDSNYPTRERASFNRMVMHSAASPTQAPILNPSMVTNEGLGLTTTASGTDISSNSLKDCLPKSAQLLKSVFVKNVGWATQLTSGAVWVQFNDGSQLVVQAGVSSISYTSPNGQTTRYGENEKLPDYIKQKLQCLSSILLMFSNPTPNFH

[5] = biological target: T5, KinomeScan kinase panel (Homo sapiens, UniProt Q6PHR2); details: kinase ULK3; 10 µM
T5 construct: purchased DiscoveRx (KinomeScan)
T5 sequence (Q6PHR2 1-472): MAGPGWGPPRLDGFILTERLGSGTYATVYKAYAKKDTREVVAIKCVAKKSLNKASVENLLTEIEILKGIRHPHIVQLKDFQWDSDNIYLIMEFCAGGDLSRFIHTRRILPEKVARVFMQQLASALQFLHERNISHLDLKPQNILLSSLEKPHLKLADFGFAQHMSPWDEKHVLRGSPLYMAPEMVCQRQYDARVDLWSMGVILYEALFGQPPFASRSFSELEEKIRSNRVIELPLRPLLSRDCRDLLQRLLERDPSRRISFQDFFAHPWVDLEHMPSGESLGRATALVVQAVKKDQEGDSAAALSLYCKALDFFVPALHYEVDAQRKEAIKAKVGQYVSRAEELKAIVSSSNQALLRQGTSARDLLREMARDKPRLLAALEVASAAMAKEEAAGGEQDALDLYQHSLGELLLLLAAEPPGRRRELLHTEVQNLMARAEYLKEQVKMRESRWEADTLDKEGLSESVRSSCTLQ

[6] = biological target: T6, KinomeScan kinase panel (Homo sapiens, UniProt Q9BYT3); details: read-out: score (%)
T6 construct: purchased DiscoveRx (KinomeScan)
T6 sequence (Q9BYT3 whole entry): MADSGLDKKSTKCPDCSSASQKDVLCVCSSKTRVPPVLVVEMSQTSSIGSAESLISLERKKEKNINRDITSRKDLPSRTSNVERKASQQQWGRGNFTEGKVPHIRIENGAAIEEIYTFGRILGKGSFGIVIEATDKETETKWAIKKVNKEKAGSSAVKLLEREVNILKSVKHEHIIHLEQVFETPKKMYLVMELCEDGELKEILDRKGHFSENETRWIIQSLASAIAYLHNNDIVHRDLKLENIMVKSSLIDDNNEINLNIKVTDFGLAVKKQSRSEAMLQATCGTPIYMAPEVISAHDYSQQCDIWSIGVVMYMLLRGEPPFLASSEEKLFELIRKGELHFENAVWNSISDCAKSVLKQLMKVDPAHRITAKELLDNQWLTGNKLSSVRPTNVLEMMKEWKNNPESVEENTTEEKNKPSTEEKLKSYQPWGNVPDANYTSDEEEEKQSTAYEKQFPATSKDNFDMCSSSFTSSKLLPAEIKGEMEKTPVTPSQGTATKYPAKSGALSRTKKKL

[7] = biological target: T7, KinomeScan kinase panel (Homo sapiens, UniProt P16234); details: PDGFRA, 10 µM; read-out: score (%)
T7 construct: purchased DiscoveRx (KinomeScan)
T7 sequence (P16234 24-1089): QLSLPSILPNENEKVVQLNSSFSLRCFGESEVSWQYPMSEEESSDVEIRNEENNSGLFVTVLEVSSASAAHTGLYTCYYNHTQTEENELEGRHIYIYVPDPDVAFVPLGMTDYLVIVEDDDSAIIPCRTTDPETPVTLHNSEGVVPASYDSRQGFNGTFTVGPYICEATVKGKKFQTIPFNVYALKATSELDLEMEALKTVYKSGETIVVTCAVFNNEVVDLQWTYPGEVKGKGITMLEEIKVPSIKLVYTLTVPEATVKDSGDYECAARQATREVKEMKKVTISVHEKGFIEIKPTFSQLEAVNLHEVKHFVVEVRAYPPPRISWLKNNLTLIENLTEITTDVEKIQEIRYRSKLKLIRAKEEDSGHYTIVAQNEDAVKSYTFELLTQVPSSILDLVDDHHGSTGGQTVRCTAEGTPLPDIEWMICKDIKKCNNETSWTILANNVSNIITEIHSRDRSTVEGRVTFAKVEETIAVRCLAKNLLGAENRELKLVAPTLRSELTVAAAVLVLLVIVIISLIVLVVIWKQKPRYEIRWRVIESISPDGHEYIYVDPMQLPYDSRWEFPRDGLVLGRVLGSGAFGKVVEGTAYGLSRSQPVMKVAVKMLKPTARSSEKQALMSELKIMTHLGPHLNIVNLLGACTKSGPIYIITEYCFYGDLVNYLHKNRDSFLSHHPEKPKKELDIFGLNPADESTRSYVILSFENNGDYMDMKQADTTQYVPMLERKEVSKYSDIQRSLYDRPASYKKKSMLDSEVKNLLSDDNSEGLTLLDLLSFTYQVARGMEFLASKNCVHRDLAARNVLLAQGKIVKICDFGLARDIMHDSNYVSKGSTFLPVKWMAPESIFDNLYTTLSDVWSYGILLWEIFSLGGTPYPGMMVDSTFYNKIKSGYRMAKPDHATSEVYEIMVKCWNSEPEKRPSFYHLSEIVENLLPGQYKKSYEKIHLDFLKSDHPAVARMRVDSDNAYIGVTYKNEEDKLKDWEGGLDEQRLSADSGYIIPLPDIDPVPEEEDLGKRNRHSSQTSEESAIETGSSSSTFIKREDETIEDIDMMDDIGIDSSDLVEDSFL

[8] = biological target: T8, KinomeScan kinase panel (Homo sapiens, UniProt P29317); details: EPHA2, 10 µM; read-out: score (%)
T8 construct: purchased DiscoveRx (KinomeScan)
T8 sequence (P29317 24-976): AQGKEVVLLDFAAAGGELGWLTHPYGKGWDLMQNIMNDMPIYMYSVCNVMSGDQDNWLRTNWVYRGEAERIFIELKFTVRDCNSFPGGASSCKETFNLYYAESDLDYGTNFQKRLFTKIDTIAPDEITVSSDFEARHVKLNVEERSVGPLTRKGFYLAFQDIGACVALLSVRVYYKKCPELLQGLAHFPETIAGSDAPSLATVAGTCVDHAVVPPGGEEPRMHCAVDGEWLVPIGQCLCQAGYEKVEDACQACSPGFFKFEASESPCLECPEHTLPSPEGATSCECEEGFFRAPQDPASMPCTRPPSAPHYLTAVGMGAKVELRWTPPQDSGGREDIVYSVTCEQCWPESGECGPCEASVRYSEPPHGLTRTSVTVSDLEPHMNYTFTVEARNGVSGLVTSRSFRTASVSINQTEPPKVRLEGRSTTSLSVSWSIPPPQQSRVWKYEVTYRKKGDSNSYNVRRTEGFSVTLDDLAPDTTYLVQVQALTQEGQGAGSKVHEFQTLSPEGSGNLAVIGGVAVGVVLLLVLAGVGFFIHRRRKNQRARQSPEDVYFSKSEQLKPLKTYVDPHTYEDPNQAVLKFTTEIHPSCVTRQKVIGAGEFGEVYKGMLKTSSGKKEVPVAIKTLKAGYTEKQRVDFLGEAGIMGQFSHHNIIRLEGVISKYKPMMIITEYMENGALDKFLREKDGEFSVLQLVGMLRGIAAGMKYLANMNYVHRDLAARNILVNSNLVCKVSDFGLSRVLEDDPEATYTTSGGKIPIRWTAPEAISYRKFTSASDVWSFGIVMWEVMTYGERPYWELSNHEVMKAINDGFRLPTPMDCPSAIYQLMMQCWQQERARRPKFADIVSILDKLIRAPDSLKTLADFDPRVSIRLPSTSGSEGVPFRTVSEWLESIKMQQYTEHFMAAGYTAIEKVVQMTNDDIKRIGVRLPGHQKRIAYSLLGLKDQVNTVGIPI

| remaining binding at 10 µM ([1]; TLK1, 10 µM) [%] | remaining binding at 10 µM ([6]; STK33, 10 µM) [%] | SMILES | remaining binding at 10 µM ([1]; kinase TLK1, 10 µM) [%] | remaining binding at 10 µM [2] [%] | score (%) ([3]; PRKR) | remaining binding at 10 µM ([4]; PLK4, 10 µM) [%] | score (%) [5] [%] | remaining binding at 10 µM ([6]; kinase STK33, 10 µM) [%] | remaining binding at 10 µM [7] [%] | remaining binding at 10 µM [8] [%] | score (%) ([3]; kinase PRKR) | remaining binding at 10 µM ([4]; kinase PLK4, 10 µM) [%] |
| --- | --- | --- | --- | --- | --- | --- | --- | --- | --- | --- | --- | --- |
|  |  | CCN1CCN(Cc2ccc(NC(=O)c3ccc(C)c(NC(=O)c4cncc(-c5cccs5)c4)c3)cc2C(F)(F)F)CC1 [ALW-II-41-27] | > 30 | 0.2 | nb (Hits values higher than 30% were considered negative (no binding: nb)) | > 30 | 0.95 | > 30 | 0 | 0.15 |  |  |
| > 30 | 23 | CCN1CCN(Cc2ccc(NC(=O)c3ccc(C)c(/C=C/c4cnc5[nH]ccc5c4Cl)c3)cc2C(F)(F)F)CC1 [HG-6-63-01, (E)-3-(2-(4-chloro-1H-pyrrolo[2,3-b]pyridin-5-yl)vinyl)-N-(4-((4-ethylpiperazin-1-yl)methyl)-3-(trifluoromethyl)phenyl)-4-methylbenzamide] |  | 0.35 | nb (Hits values higher than 30% were considered negative (no binding: nb)) | > 30 | 23 |  | 0 | 0.25 |  |  |
|  |  | CCN1CCN(Cc2ccc(NC(=O)c3ccc(C)c(C#Cc4cccnc4)c3)cc2C(F)(F)F)CC1 [XMD15-44] | 93 | 0 |  |  | 0.25 | 14 | 0 | 0.4 | 66 | 88 |

Reference: publication PMC4457528, “Identification of Novel Small Molecule Inhibitors of Oncogenic RET Kinase” (PLoS ONE, 2015)
